Measured values from ChEMBL document CHEMBL1149982, “Synthesis and in vitro profile of 7-substituted quinoline chromanols as novel, non-acidic LTB4 antagonists” (Bioorg Med Chem Lett, 1995).

Target: T1, Cysteinyl leukotriene receptor 1 (Cavia porcellus, UniProt Q2NNR5)
T1 sequence (Q2NNR5 whole entry): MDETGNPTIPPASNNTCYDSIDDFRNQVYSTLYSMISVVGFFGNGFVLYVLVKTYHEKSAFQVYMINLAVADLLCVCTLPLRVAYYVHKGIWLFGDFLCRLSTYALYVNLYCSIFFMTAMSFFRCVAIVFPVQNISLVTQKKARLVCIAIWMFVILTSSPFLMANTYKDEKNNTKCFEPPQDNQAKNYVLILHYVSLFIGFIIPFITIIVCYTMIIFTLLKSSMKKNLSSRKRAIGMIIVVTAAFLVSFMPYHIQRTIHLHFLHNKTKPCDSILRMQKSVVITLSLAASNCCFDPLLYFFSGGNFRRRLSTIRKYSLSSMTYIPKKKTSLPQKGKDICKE
Test: In vitro inhibitory activity against leukotriene D4 receptor

Row | Structure (SMILES) | Ki
1 | O[C@@H]1c2ccc(OCc3ccc4ccccc4n3)cc2OC[C@@H]1Cc1cccnc1 | 1.3 µM
2 | CC(Oc1ccc2c(c1)OC[C@H](Cc1ccccn1)[C@@H]2O)c1ccc2ccccc2n1 (stereo partly specified) | > 50 µM
3 | O[C@@H]1c2ccc(OCc3ccc4ccccc4n3)cc2OC[C@H]1Cc1cccnc1 | 4.1 µM
4 | O[C@@H]1c2cc(OCc3ccc4ccccc4n3)ccc2OC[C@H]1Cc1cccnc1 | 1 µM

More lines, now with the values ahead:

Row | Ki | Structure (SMILES)
5 | > 50 µM | C[C@H](Oc1ccc2c(c1)OC[C@@H](Cc1cccnc1)[C@@H]2O)c1ccc2ccccc2n1
6 | > 50 µM | CC(Oc1ccc2c(c1)OC[C@@H](Cc1ccccn1)[C@@H]2O)c1ccc2ccccc2n1 (stereo partly specified)
7 | > 50 µM | C[C@@H](Oc1ccc2c(c1)OC[C@@H](Cc1cccnc1)[C@@H]2O)c1ccc2ccccc2n1
8 | > 50 µM | CC(Oc1ccc2c(c1)OC[C@H](Cc1cccnc1)[C@@H]2O)c1ccc2ccccc2n1 (stereo partly specified)

Target: T1, Cysteinyl leukotriene receptor 1
Test: In vitro inhibitory activity against human leukotriene D4 (LTD4)

Row | Structure (SMILES) | Ki
9 | O[C@@H]1c2cc(OCc3ccc4ccccc4n3)ccc2OC[C@@H]1Cc1cccnc1 | 1.6 µM

Target: Leukotriene B4 receptor 1 (Homo sapiens, UniProt Q15722)
Test: In vitro inhibitory activity against human neutrophil leukotriene B4 (LTB4)

Leukotriene B4 receptor 1, sequence (Q15722 whole entry): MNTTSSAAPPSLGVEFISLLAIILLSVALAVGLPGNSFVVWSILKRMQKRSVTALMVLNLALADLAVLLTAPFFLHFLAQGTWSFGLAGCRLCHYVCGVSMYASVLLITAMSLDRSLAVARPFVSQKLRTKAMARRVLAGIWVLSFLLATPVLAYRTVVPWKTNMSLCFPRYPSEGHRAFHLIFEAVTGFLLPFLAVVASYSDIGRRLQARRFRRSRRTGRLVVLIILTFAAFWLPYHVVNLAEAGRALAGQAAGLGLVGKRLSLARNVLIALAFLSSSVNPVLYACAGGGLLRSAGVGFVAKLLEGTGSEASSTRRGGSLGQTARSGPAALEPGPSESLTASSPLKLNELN

Row | Structure (SMILES) | Ki
10 | CC(Oc1ccc2c(c1)OC[C@H](Cc1ccccn1)[C@@H]2O)c1ccc2ccccc2n1 (stereo partly specified) | 3.3 µM
11 | O[C@@H]1c2cc(OCc3ccc4ccccc4n3)ccc2OC[C@@H]1Cc1cccnc1 | 38 µM
12 | O[C@@H]1c2cc(OCc3ccc4ccccc4n3)ccc2OC[C@H]1Cc1cccnc1 | 16 µM

Further lines, results first:

Row | Ki | Structure (SMILES)
13 | 1.9 µM | C[C@H](Oc1ccc2c(c1)OC[C@@H](Cc1cccnc1)[C@@H]2O)c1ccc2ccccc2n1
14 | 0.24 µM | CC(Oc1ccc2c(c1)OC[C@@H](Cc1ccccn1)[C@@H]2O)c1ccc2ccccc2n1 (stereo partly specified)
15 | 0.33 µM | C[C@@H](Oc1ccc2c(c1)OC[C@@H](Cc1cccnc1)[C@@H]2O)c1ccc2ccccc2n1
16 | 5.2 µM | CC(Oc1ccc2c(c1)OC[C@H](Cc1cccnc1)[C@@H]2O)c1ccc2ccccc2n1 (stereo partly specified)
